Assay results as given in patent US10253039B2, “Inhibitors of bacterial DNA gyrase with efficacy against gram-negative bacteria” (priority 2014, dated 2019).
Converted amounts (≈) assume the structure as drawn. Read-outs that look alike come from different tables or passages of the source.

Experiments:
Acinetobacter baumannii = test: MIC, microdilution in 96-well plates; assay type: cell-based
In short: (§1)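 Broth microdilution per CLSI guidance: each strain was diluted 1:10000 from a growing subculture into Luria-Bertani medium, and compound was serially diluted 2-fold in triplicate alongside a DMSO column. Plates were shaken at 37° C. for 16-18 hours; MIC is the lowest concentration showing no visible turbidity.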

E. coli BW25113 = test: MIC, microdilution in 96-well plates; assay type: cell-based; conditions: Escherichia coli, read-out: MIC
In short: as §1

Edwardsiella tarda = test: MIC, microdilution in 96-well plates; assay type: cell-based
In short: as §1

Enterobacter aerogenes = test: MIC, microdilution in 96-well plates; assay type: cell-based; conditions: Klebsiella aerogenes
In short: as §1

Pseudomonas aeruginosa = test: MIC, microdilution in 96-well plates; assay type: cell-based
In short: as §1

E. coli JW5503 (deltolC) = test: MIC, 20-strain panel; assay type: cell-based; conditions: Escherichia coli
In short: as §1

E. coli MG1655 = test: MIC, 20-strain panel; assay type: cell-based; conditions: Escherichia coli, read-out: MIC
In short: as §1

[1] = test system: Klebsiella pneumoniae subsp. pneumoniae; test: MIC, 20-strain panel; assay type: cell-based
In short: as §1

[2] = test system: Morganella morganii subsp. morganii; test: MIC, 20-strain panel; assay type: cell-based; conditions: Morganella morganii
In short: as §1

[3] = test system: Salmonella enterica subsp. enterica typhimurium; test: MIC, 20-strain panel; assay type: cell-based
In short: as §1

Shigella flexneri = test: MIC, 20-strain panel; assay type: cell-based
In short: as §1

[4] = test system: Staphylococcus aureus subsp. aureus; test: MIC, 20-strain panel; assay type: cell-based; conditions: H: Staphylococcus aureus subsp. aureus, read-out: MIC
In short: as §1

[5] = test system: Staphylococcus epidermidis; test: MIC, 20-strain panel; assay type: cell-based
In short: as §1

[6] = test system: Staphylococcus saprophyticus subsp. saprophyticus; test: MIC, 20-strain panel; assay type: cell-based
In short: as §1

Streptococcus agalactiae = test: MIC, 20-strain panel; assay type: cell-based
In short: as §1

Streptococcus pyogenes = test: MIC, 20-strain panel; assay type: cell-based
In short: as §1

E. coli BW25113 ΔtolC = test: MIC, microdilution in 96-well plates; conditions: Table 4
[7] = test system: E. coli BW25113 ΔtolC gyrR isolate GyrA Pro35Thr; test: MIC against gyramide-resistant mutant
Protocol: (§2) A microdilution method in 96-well plates was used and the MIC protocol established by the Clinical Laboratory Standards Institute was followed. From a growing subculture, a 1:10000 inoculum of each strain in Luria-Bertani media was prepared and aliquoted 100 μL in 4 columns of wells, except for the top row wells, which contained 200 μL of inoculum. […] The liquid in each of wells was mixed with a multi-channel pipet and 100 μL was transferred to the next well and mixed. The 2-fold dilution was continued down the 96-well plate until 100 μL was left, which was discarded. The plates were incubated at 37° C. with shaking for 16-18 hours. The MIC was determined as the lowest concentration that inhibited growth and had no turbidity by visual inspection.

[8] = test system: E. coli BW25113 ΔtolC gyrR isolate GyrA Ser97Pro; test: MIC against gyramide-resistant mutant
Protocol: as §2

[9] = test system: E. coli BW25113 ΔtolC gyrR isolate GyrA Phe96Leu; test: MIC against gyramide-resistant mutant
Protocol: as §2

[10] = test system: E. coli BW25113 ΔtolC gyrR isolate GyrA His45Tyr; test: MIC against gyramide-resistant mutant
Protocol: as §2

[11] = test system: E. coli BW25113 ΔtolC gyrR isolate GyrB Thr508Met; test: MIC against gyramide-resistant mutant
Protocol: as §2

[12] = BW25113, E. coli BW25113, Table 7, separate set of experiments
[13] = Table 7, separate set of experiments
[14] = E. coli JW5503 (deltolC), Table 7, separate set of experiments
[15] = MG1655, E. coli MG1655, Table 7, separate set of experiments
[16] = E: Klebsiella pneumoniae subsp. pneumoniae
[17] = Klebsiella pneumoniae subsp. pneumoniae, Table 7, separate set of experiments
[18] = F: Salmonella enterica subsp. enterica Typhimurium
[19] = Salmonella enterica subsp. enterica typhimurium, Table 7, separate set of experiments

SMILES | MIC (E. coli BW25113; BW25113, B: E. coli BW25113) | MIC (Edwardsiella tarda; D: Edwardsiella tarda) | MIC (E. coli JW5503 (deltolC); C: E. coli JW5503 (deltolC)) | MIC (E. coli MG1655; MG1655, A: E. coli MG1655) | MIC [1, 16] | MIC [3, 18] | MIC (Shigella flexneri; G: Shigella flexneri) | MIC [4] | MIC [5] | MIC [6] | MIC (Streptococcus agalactiae) | MIC (Streptococcus pyogenes) | other results
Cc1ccc(C#N)cc1S(=O)(=O)N[C@@H]1CCN(Cc2ccc(OC3CC3)cc2)C1 [Compound 113] | ~8 µg/mL (≈ 19.4 µM) | ~8 µg/mL (≈ 19.4 µM) | 0.25 µg/mL (≈ 0.607 µM) | ~8 µg/mL (≈ 19.4 µM) | > 8 µg/mL | 2 µg/mL (≈ 4.86 µM) | ~8 µg/mL (≈ 19.4 µM) | > 8 µg/mL | > 8 µg/mL | > 8 µg/mL | > 8 µg/mL | > 8 µg/mL | MIC (Acinetobacter baumannii): > 16 µg/mL; MIC (E. coli BW25113; [12]): 8 µg/mL (≈ 19.4 µM); MIC (Edwardsiella tarda; [13]): 16 µg/mL (≈ 38.9 µM); MIC (Enterobacter aerogenes): > 16 µg/mL; MIC (Pseudomonas aeruginosa): > 16 µg/mL; MIC (E. coli JW5503 (deltolC); [14]): 0.125 µg/mL (≈ 0.304 µM); MIC (E. coli MG1655; [15]): 16 µg/mL (≈ 38.9 µM); MIC [1, 17]: > 16 µg/mL; MIC [2]: > 16 µg/mL; MIC [3, 19]: 4 µg/mL (≈ 9.72 µM); MIC (Shigella flexneri; [13]): 8 µg/mL (≈ 19.4 µM)
Cc1ccc(F)cc1S(=O)(=O)NC1CCN(Cc2ccc(OC(C)C)cc2)C1 (stereo not drawn) [Gyramide A] | – | – | – | – | – | – | – | – | – | – | – | – | MIC (E. coli BW25113 ΔtolC; E. coli BW25113 ΔtolC (parent strain)): 20 µM (≈ 8.13 µg/mL); MIC ([7]; gyrR isolate GyrA Pro35Thr): 320 µM (≈ 130 µg/mL); MIC ([8]; gyrR isolate GyrA Ser97Pro): 320 µM (≈ 130 µg/mL); MIC ([9]; gyrR isolate GyrA Phe96Leu): 320 µM (≈ 130 µg/mL); MIC ([10]; gyrR isolate GyrA His45Tyr): 320 µM (≈ 130 µg/mL); MIC ([11]; gyrR isolate GyrB Thr508Met): 320 µM (≈ 130 µg/mL)
N#Cc1ccc(Cl)c(S(=O)(=O)N[C@@H]2CCN(Cc3ccc(OC4CC4)cc3)C2)c1 [Compound 77] | 8 µg/mL (≈ 18.5 µM) | 8 µg/mL (≈ 18.5 µM) | 0.125 µg/mL (≈ 0.289 µM) | 8 µg/mL (≈ 18.5 µM) | ~8 µg/mL (≈ 18.5 µM) | 1 µg/mL (≈ 2.32 µM) | 4 µg/mL (≈ 9.26 µM) | > 8 µg/mL | > 8 µg/mL | > 8 µg/mL | > 8 µg/mL | > 8 µg/mL | MIC (Acinetobacter baumannii): > 16 µg/mL; MIC (E. coli BW25113; [12]): 8 µg/mL (≈ 18.5 µM); MIC (Edwardsiella tarda; [13]): 16 µg/mL (≈ 37 µM); MIC (Enterobacter aerogenes): > 16 µg/mL; MIC (Pseudomonas aeruginosa): > 16 µg/mL; MIC (E. coli JW5503 (deltolC); [14]): 0.125 µg/mL (≈ 0.289 µM); MIC (E. coli MG1655; [15]): 16 µg/mL (≈ 37 µM); MIC [1, 17]: > 16 µg/mL; MIC [2]: > 16 µg/mL; MIC [3, 19]: 2 µg/mL (≈ 4.63 µM); MIC (Shigella flexneri; [13]): 4 µg/mL (≈ 9.26 µM)
CO[C@@H]1[C@@H](OC(N)=O)[C@@H](O)[C@H](Oc2ccc3c(O)c(NC(=O)c4ccc(O)c(CC=C(C)C)c4)c(=O)oc3c2C)OC1(C)C [Novobiocin, novobiocin] | – | – | – | – | – | – | – | – | – | – | – | – | MIC (E. coli BW25113 ΔtolC; Escherichia coli, BW25113, E. coli BW25113 ΔtolC (parent strain)): 1.25 µM (≈ 0.766 µg/mL); MIC ([7]; Escherichia coli, BW25113): 1.25 µM (≈ 0.766 µg/mL); MIC ([8]; Escherichia coli, BW25113): 1.25 µM (≈ 0.766 µg/mL); MIC ([9]; Escherichia coli, BW25113): 1.25 µM (≈ 0.766 µg/mL); MIC ([10]; Escherichia coli, BW25113): 1.25 µM (≈ 0.766 µg/mL); MIC ([11]; Escherichia coli, BW25113): 1.25 µM (≈ 0.766 µg/mL)
O=S(=O)(N[C@@H]1CCN(Cc2ccc(OC3CC3)cc2)C1)c1cccc(C(F)(F)F)c1 [Compound 156] | ~8 µg/mL (≈ 18.2 µM) | ~8 µg/mL (≈ 18.2 µM) | 0.125 µg/mL (≈ 0.284 µM) | ~8 µg/mL (≈ 18.2 µM) | > 8 µg/mL | 4 µg/mL (≈ 9.08 µM) | 8 µg/mL (≈ 18.2 µM) | > 8 µg/mL | > 8 µg/mL | > 8 µg/mL | > 8 µg/mL | > 8 µg/mL | MIC (Acinetobacter baumannii): > 16 µg/mL; MIC (E. coli BW25113; [12]): 16 µg/mL (≈ 36.3 µM); MIC (Edwardsiella tarda; [13]): 16 µg/mL (≈ 36.3 µM); MIC (Enterobacter aerogenes): > 16 µg/mL; MIC (Pseudomonas aeruginosa): > 16 µg/mL; MIC (E. coli JW5503 (deltolC); [14]): 0.125 µg/mL (≈ 0.284 µM); MIC (E. coli MG1655; [15]): 16 µg/mL (≈ 36.3 µM); MIC [1, 17]: > 16 µg/mL; MIC [2]: > 16 µg/mL; MIC [3, 19]: 4 µg/mL (≈ 9.08 µM); MIC (Shigella flexneri; [13]): 8 µg/mL (≈ 18.2 µM)
CC(=O)c1cc(S(=O)(=O)N[C@@H]2CCN(Cc3ccc(OC(C)C)cc3)C2)ccc1C [Compound 1] | > 8 µg/mL | > 8 µg/mL | > 8 µg/mL | > 8 µg/mL | > 8 µg/mL | > 8 µg/mL | > 8 µg/mL | > 8 µg/mL | > 8 µg/mL | > 8 µg/mL | > 8 µg/mL | > 8 µg/mL | –
O=S(=O)(N[C@@H]1CCN(Cc2ccc(-c3ccccc3Cl)cc2)C1)c1cccc(C(F)(F)F)c1 [Compound 69] | > 8 µg/mL | > 8 µg/mL | 8 µg/mL (≈ 16.2 µM) | > 8 µg/mL | > 8 µg/mL | > 8 µg/mL | > 8 µg/mL | > 8 µg/mL | 4 µg/mL (≈ 8.08 µM) | > 8 µg/mL | > 8 µg/mL | ~8 µg/mL (≈ 16.2 µM) | –
N#Cc1cccc(S(=O)(=O)N[C@@H]2CCN(Cc3ccc(-n4ccnn4)cc3)C2)c1 [Compound 7] | > 8 µg/mL | > 8 µg/mL | 8 µg/mL (≈ 19.6 µM) | > 8 µg/mL | > 8 µg/mL | > 8 µg/mL | > 8 µg/mL | > 8 µg/mL | > 8 µg/mL | > 8 µg/mL | > 8 µg/mL | > 8 µg/mL | –
O=S(=O)(N[C@@H]1CCN(Cc2ccc(OC3CC3)cc2)C1)c1cc(S(=O)(=O)c2ccccc2)cs1 [Compound 65] | > 8 µg/mL | > 8 µg/mL | > 8 µg/mL | > 8 µg/mL | > 8 µg/mL | > 8 µg/mL | > 8 µg/mL | > 8 µg/mL | > 8 µg/mL | > 8 µg/mL | > 8 µg/mL | > 8 µg/mL | –
O=S(=O)(N[C@@H]1CCN(Cc2ccc(OC3CCOCC3)cc2)C1)c1cccc(C(F)(F)F)c1 [Compound 38] | > 8 µg/mL | > 8 µg/mL | 1 µg/mL (≈ 2.06 µM) | > 8 µg/mL | > 8 µg/mL | > 8 µg/mL | > 8 µg/mL | > 8 µg/mL | > 8 µg/mL | > 8 µg/mL | > 8 µg/mL | > 8 µg/mL | –
O=S(=O)(N[C@@H]1CCN(Cc2ccc(OC3CCCC3)cc2)C1)c1cccc(C(F)(F)F)c1 [Compound 41] | > 8 µg/mL | > 8 µg/mL | 0.5 µg/mL (≈ 1.07 µM) | > 8 µg/mL | > 8 µg/mL | 8 µg/mL (≈ 17.1 µM) | > 8 µg/mL | ~8 µg/mL (≈ 17.1 µM) | 8 µg/mL (≈ 17.1 µM) | > 8 µg/mL | > 8 µg/mL | > 8 µg/mL | –
O=S(=O)(N[C@@H]1CCN(Cc2ccc(-n3cccn3)cc2)C1)c1cccc(C(F)(F)F)c1 [Compound 35] | > 8 µg/mL | > 8 µg/mL | 1 µg/mL (≈ 2.22 µM) | > 8 µg/mL | > 8 µg/mL | > 8 µg/mL | > 8 µg/mL | > 8 µg/mL | > 8 µg/mL | > 8 µg/mL | > 8 µg/mL | > 8 µg/mL | –
